How the values were obtained:
[1] = Stability of 5-azacytidine in whole blood; conditions: for Mean [5-aza] / % of Time 0: whole blood;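 as to all read-outs here: drug level determined in plasma separated from whole blood, extracted with acetonitrile plus internal standard, then quantified by LC/MS/MS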
[2] = Stability of 5-azacytidine stored as an acetonitrile residue at minus 70° C.; conditions: for % of Time 0 / Mean [5-aza]: acetonitrile residue at minus 70° C.
[3] = Stability of 5-azacytidine stored in acetonitrile/plasma mixtures at different temperatures; conditions: for % of Fresh Prep / Mean [5-aza]: acetonitrile/plasma mixture
[4] = [5-aza] 15 ng/mL, Room Temp, 15 mins
[5] = [5-aza] 15 ng/mL, Room Temp, 30 mins
[6] = [5-aza] 15 ng/mL, Room Temp, 45 mins
[7] = [5-aza] 200 ng/mL, Ice, 15 mins
[8] = [5-aza] 200 ng/mL, Ice, 30 mins
[9] = [5-aza] 200 ng/mL, Ice, 45 mins
[10] = [5-aza] 200 ng/mL, Ice, 60 mins
[11] = [5-aza] 200 ng/mL, Room Temp, 15 mins
[12] = [5-aza] 200 ng/mL, Room Temp, 30 mins
[13] = [5-aza] 200 ng/mL, Room Temp, 45 mins
[14] = [5-aza] 200 ng/mL, Room Temp, 60 mins
[15] = [5-aza] 30 ng/mL, Freeze-thaw (minus 70° C. for 4 days followed by RT for 5.5 hours)
[16] = [5-aza] 400 ng/mL, Freeze-thaw (minus 70° C. for 4 days followed by RT for 5.5 hours)

degradation in whole blood ([1]; room temperature): rapidly degrades
degradation in whole blood ([1]; stored on ice, compared with room temperature): slightly reduced rate
Mean [5-aza] ([1]; [5-aza] 15 ng/mL, Ice, 0 mins): 16.1 (N = 5) ng/mL
% of Time 0 ([1]; [5-aza] 15 ng/mL, Ice, 15 mins): 80.7%
Mean [5-aza] ([1]; [5-aza] 15 ng/mL, Ice, 15 mins): 13.0 (N = 4) ng/mL
% of Time 0 ([1]; [5-aza] 15 ng/mL, Ice, 30 mins): 77.6%
Mean [5-aza] ([1]; [5-aza] 15 ng/mL, Ice, 30 mins): 12.5 (N = 3) ng/mL
% of Time 0 ([1]; [5-aza] 15 ng/mL, Ice, 45 mins): 70.8%
Mean [5-aza] ([1]; [5-aza] 15 ng/mL, Ice, 45 mins): 11.4 (N = 4) ng/mL
% of Time 0 ([1]; [5-aza] 15 ng/mL, Ice, 60 mins): 71.4%
Mean [5-aza] ([1]; [5-aza] 15 ng/mL, Ice, 60 mins): 11.5 (N = 5) ng/mL
Mean [5-aza] ([1]; [5-aza] 15 ng/mL, Room Temp, 0 mins): 16.1 (N = 5) ng/mL
% of Time 0 [1, 4]: 82.6%
Mean [5-aza] [1, 4]: 13.3 (N = 5) ng/mL
% of Time 0 [1, 5]: 71.4%
Mean [5-aza] [1, 5]: 11.5 (N = 5) ng/mL
% of Time 0 [1, 6]: 64.0%
Mean [5-aza] [1, 6]: 10.3 (N = 2) ng/mL
Mean [5-aza] ([1]; [5-aza] 200 ng/mL, Ice, 0 mins): 152.0 (N = 5) ng/mL
% of Time 0 [1, 7]: 79.6%
Mean [5-aza] [1, 7]: 121.0 (N = 5) ng/mL
% of Time 0 [1, 8]: 73.0%
Mean [5-aza] [1, 8]: 111.0 (N = 5) ng/mL
% of Time 0 [1, 9]: 72.4%
Mean [5-aza] [1, 9]: 110.0 (N = 5) ng/mL
% of Time 0 [1, 10]: 57.2%
Mean [5-aza] [1, 10]: 87.0 (N = 5) ng/mL
Mean [5-aza] ([1]; [5-aza] 200 ng/mL, Room Temp, 0 mins): 152.0 (N = 5) ng/mL
% of Time 0 [1, 11]: 73.4%
Mean [5-aza] [1, 11]: 111.6 (N = 5) ng/mL
% of Time 0 [1, 12]: 57.8%
Mean [5-aza] [1, 12]: 87.9 (N = 5) ng/mL
% of Time 0 [1, 13]: 37.3%
Mean [5-aza] [1, 13]: 56.7 (N = 5) ng/mL
% of Time 0 [1, 14]: 21.7%
Mean [5-aza] [1, 14]: 33.0 (N = 5) ng/mL
time stable as acetonitrile residue ([2]; about minus 70° C., stable = within ±20% of freshly prepared sample): at least 14 months
% of Time 0 ([2]; [5-aza] 30 ng/mL, 4 Weeks): 90.0%
Mean [5-aza] ([2]; [5-aza] 30 ng/mL, 4 Weeks): 27.1 (N = 6) ng/mL
% of Time 0 ([2]; [5-aza] 30 ng/mL, 6 Months): 105.3%
Mean [5-aza] ([2]; [5-aza] 30 ng/mL, 6 Months): 31.7 (N = 6) ng/mL
% of Time 0 ([2]; [5-aza] 30 ng/mL, 7 Days): 93.7%
Mean [5-aza] ([2]; [5-aza] 30 ng/mL, 7 Days): 28.2 (N = 6) ng/mL
% of Time 0 ([2]; [5-aza] 30 ng/mL, 14 Days): 97.3%
Mean [5-aza] ([2]; [5-aza] 30 ng/mL, 14 Days): 29.3 (N = 6) ng/mL
% of Time 0 ([2]; [5-aza] 30 ng/mL, 14 Months): 111.0%
Mean [5-aza] ([2]; [5-aza] 30 ng/mL, 14 Months): 33.4 (N = 5) ng/mL
% of Time 0 ([2]; [5-aza] 30 ng/mL, 15 Weeks): 100.7%
Mean [5-aza] ([2]; [5-aza] 30 ng/mL, 15 Weeks): 30.3 (N = 6) ng/mL
Mean [5-aza] ([2]; [5-aza] 30 ng/mL, Time 0): 30.1 (N = 6) ng/mL
% of Time 0 ([2]; [5-aza] 400 ng/mL, 4 Weeks): 95.6%
Mean [5-aza] ([2]; [5-aza] 400 ng/mL, 4 Weeks): 365 (N = 5) ng/mL
% of Time 0 ([2]; [5-aza] 400 ng/mL, 6 Months): 97.4%
Mean [5-aza] ([2]; [5-aza] 400 ng/mL, 6 Months): 372 (N = 5) ng/mL
% of Time 0 ([2]; [5-aza] 400 ng/mL, 7 Days): 98.7%
Mean [5-aza] ([2]; [5-aza] 400 ng/mL, 7 Days): 377 (N = 6) ng/mL
% of Time 0 ([2]; [5-aza] 400 ng/mL, 14 Days): 91.6%
Mean [5-aza] ([2]; [5-aza] 400 ng/mL, 14 Days): 350 (N = 6) ng/mL
% of Time 0 ([2]; [5-aza] 400 ng/mL, 14 Months): 115.9%
Mean [5-aza] ([2]; [5-aza] 400 ng/mL, 14 Months): 443 (N = 5) ng/mL
% of Time 0 ([2]; [5-aza] 400 ng/mL, 15 Weeks): 103.9%
Mean [5-aza] ([2]; [5-aza] 400 ng/mL, 15 Weeks): 397 (N = 6) ng/mL
Mean [5-aza] ([2]; [5-aza] 400 ng/mL, Time 0): 382 (N = 6) ng/mL
measured 5-azacytidine concentration, deviation from initial concentration in the plasma sample ([2]; samples prepared according to the methods, LC/MS/MS): ≤ 20%
time stable in acetonitrile layer over plasma layer ([3]; about minus 70° C.): at least 4 days
time stable in acetonitrile layer over plasma layer (acetonitrile/plasma solution) ([3]; about room temperature, stable = within ±20% of freshly prepared sample): at least 3 hours
% of Fresh Prep ([3]; [5-aza] 30 ng/mL, 3 hours RT): 98.7%
Mean [5-aza] ([3]; [5-aza] 30 ng/mL, 3 hours RT): 29.8 (N = 6) ng/mL
% of Fresh Prep [3, 15]: 103.3%
Mean [5-aza] [3, 15]: 31.2 (N = 6) ng/mL
Mean [5-aza] ([3]; [5-aza] 30 ng/mL, Fresh prep.): 30.2 (N = 6) ng/mL
% of Fresh Prep ([3]; [5-aza] 400 ng/mL, 3 hours RT): 89.4%
Mean [5-aza] ([3]; [5-aza] 400 ng/mL, 3 hours RT): 371 (N = 6) ng/mL
% of Fresh Prep [3, 16]: 88.4%
Mean [5-aza] [3, 16]: 367 (N = 6) ng/mL
Mean [5-aza] ([3]; [5-aza] 400 ng/mL, Fresh prep.): 415 (N = 6) ng/mL
time stable in acetonitrile/plasma solution ([3]; minus 70° C. with one freeze-thaw cycle of 5.5 hours at room temperature, stable = within ±20% of freshly prepared sample): at least 4 days
SMILES: Nc1ncn([C@@H]2O[C@H](CO)[C@@H](O)[C@H]2O)c(=O)n1 [5-azacytidine, 4-amino-1-β-D-ribofuranosyl-1,3,5-triazin-2(1H)-one]

Source: patent US7192781B2 (Pharmion Corporation, priority 2004, dated 2007)
